Experimental data from patent US20030232079A1, “DPC 333 formulation having unique biopharmaceutical characteristics” (priority 2002, published 2003).
Where two headings read alike, the source gives them in different places.

Legend:
Format in all cases: in vivo, human
[1] = Safety and tolerability of single oral doses of DPC 333 (AEs, clinical laboratory tests, ECGs, vital signs)
Experimental: (§1) The safety, tolerability, and pharmacokinetics of an oral dose form of DPC 333 were evaluated in a double-blind, placebo controlled, ascending single dose study in healthy male and female human subjects. Subjects in each cohort were randomized to receive either a single dose of DPC 333 (n=6) or placebo (n=2). Doses examined were 15, 25, 40, 80, 120, 225, 345, and 530 mg. Safety measurements included monitoring of AEs, standard clinical laboratory tests, ECGs, and vital sign measurements.

[2] = Effect of food on pharmacokinetics of oral DPC 333, two period crossover study (fasted vs high-fat breakfast); details: for AUC(0-inf) / AUC(0-t) / Cmax: male, po, n = 6, mean ± SD
Experimental: (§2) Blood samples were obtained pre-dose (0 hour) and 0.25, 0.5, 1, 1.5, 2, 2.5, 3, 4, 6, 8, 12, 18, 24, 36 and 48 hours post-dose administration. DPC 333 was quantified plasma extracts from these blood samples by a solid phase method followed by turbo ion spray liquid chromatography employing tandem mass spectroscopic detection (LC/MS/MS). The validated assay range for DPC 333 using 0.2 mL of plasma was 1.05 to 2098 nM. The assay was specific for DPC 333.
(§3) The following pharmacokinetic parameters for DPC 333 were assessed following a single dose administration of the DPC 333 oral dosage form to a subject: Cmax, Tmax, AUC, T1/2, Clo, and C12. Cmax is defined as the observed maximum plasma concentration. Tmax is defined as the time of observed maximum plasma concentration. AUC is defined as the area under the plasma concentration-time curve from time zero to time infinity; T1/2 is defined as the terminal disposition half-life.
The effect of food on the safety, tolerability and pharmacokinetics of this oral dose form of DPC 333 was also examined in a randomized, open label, two period balanced crossover study in one cohort of male subjects. Each subject received a single oral 225 mg dose of DPC 333 on two occasions administered at least one week apart. On one occasion the dose was given in the fasted state and on the other occasion the dose was administered after a standard, high-fat breakfast meal. The following table provides pharmacokinetic data from this study.

[3] = Double-blind, placebo controlled, ascending single dose pharmacokinetic study of oral DPC 333 in healthy subjects; details: for half-life / Cmax / Tmax / AUC / AUC(0-inf) / concentration at 12 h: both sexes, human, plasma; for AUC: read-out: mean AUC from time zero to time infinity, range; for concentration at 12 h: read-out: C12 (plasma concentration at 12 hours) Mean
Experimental: as §1, §2, §3

[4] = Comparison of DPC 333 pharmacokinetics by gender in fasted subjects; details: for half-life / AUC(0-inf) / Cmax / Tmax: human, plasma, oral, 225 mg; for half-life: harmonic mean ± pseudo-standard deviation; for AUC(0-inf) / Cmax: mean ± SD; for Tmax: read-out: Tmax (median)
Experimental: as §2, §3
Differences in pharmacokinetics of DPC 333 based upon gender were also examined. The following table provides a comparison of DPC 333 pharmacokinetics by gender in fasted subjects receiving a single dose of 225 mg of DPC 333.

[5] = Double-blind, placebo controlled, ascending single dose pharmacokinetic study of oral DPC 333 in healthy subjects; details: single oral dose 80 mg, healthy volunteers, n = 12
[6] = administered with food compared to fasted state, 225 mg
[7] = fed/fasted, fasted treatment as the reference, 225 mg
[8] = human, plasma, 225 mg, Fasted, 225 mg single oral dose, male subjects
[9] = human, plasma, 225 mg, Fed (high-fat breakfast), 225 mg single oral dose, male subjects
[10] = single oral dose 15 mg, healthy volunteers, n = 6
[11] = single oral dose 25 mg, healthy volunteers, n = 6
[12] = single oral dose 40 mg, healthy volunteers, n = 6
[13] = single oral dose 80 mg, healthy volunteers, n = 12
[14] = single oral dose 120 mg, healthy volunteers, n = 6
[15] = single oral dose 225 mg, healthy volunteers, n = 6
[16] = single oral dose 345 mg, healthy volunteers, n = 6
[17] = single oral dose 530 mg, healthy volunteers, n = 6
[18] = female, Females (n = 6), Part 1: 225 mg (fasted)
[19] = male, Males (n = 6), Part 1: 225 mg (fasted)
[20] = male, Males (n = 6), Part 2: 225 mg (fasted)

## Cc1cc(COc2ccc([C@]3(N)CCN([C@H](CC(C)C)C(=O)NO)C3=O)cc2)c2ccccc2n1 [DPC 333, [1-(R)]-3-amino-N-hydroxy-alpha-(2-methylpropyl)-3-[4-[(2-methyl-4-quinolinyl)methoxy]phenyl]-2-oxo-1-pyrrolidineacetamide]
[1]; all safety parameters measured, doses 15 to 530 mg
  dose-related trends in safety parameters: no dose-related mean trends observed
[1]; doses 15 to 530 mg
  discontinuations because of an AE / serious AEs: no discontinuations because of an AE nor any serious AEs reported
[1]; doses evaluated, 15 to 530 mg
  criteria for an intolerable dose: criteria for an intolerable dose were not achieved
[1]; oral dose form, healthy volunteers
  tolerability: well tolerates
[2]; [6]
  decrease in AUC with food: about 23%
  decrease in Cmax with food: about 40%
[2]; [7]
  AUC (0-t) Geometric Mean Ratio: 0.767
  AUC (0-∞) Geometric Mean Ratio: 0.767
  Cmax Geometric Mean Ratio: 0.597
[2]; human, plasma, Fasted, 225 mg single oral dose, male subjects, n = 6, read-out: Tmax (median)
  Tmax: 0.5 h
[2]; [8]
  AUC(0-inf): 12.5 ± 2.79 µM·h
  AUC(0-t): 12.4 ± 2.79 µM·h
  Cmax: 5700 ± 1420 nM
[2]; [9]
  AUC(0-inf): 9.49 ± 1.71 µM·h
  AUC(0-t): 9.48 ± 1.71 µM·h
  Cmax: 3410 ± 832 nM
[3]; at a single dose greater than 225 mg
  increase in mean AUC (time zero to time infinity) with dose: greater than proportional increase
[3]; at the 345 mg and 530 mg doses
  increase in exposure (AUC) with dose: greater-than-proportional increase
[3]; oral, for the higher doses, read-out: mean half-life estimates (converted)
  half-life: ~6 h
[3]; oral, single dose administrations ranging from 15 mg to 530 mg, read-out: mean terminal disposition half-life (T1/2)
  half-life: 2 to 7 h
[3]; oral, single dose of 15 mg, read-out: mean maximum plasma concentration (Cmax), range
  Cmax: 0.088 to 0.18 µM
[3]; oral, single dose of 15 mg, read-out: mean time of maximum plasma concentration (Tmax), range
  Tmax: 0.5 to 1 h
[3]; oral, single dose of 25 mg
  AUC: 0.45 to 0.9 µM·h
[3]; oral, single dose of 25 mg, read-out: mean maximum plasma concentration (Cmax), range
  Cmax: 0.17 to 0.435 µM
[3]; oral, single dose of 25 mg, read-out: mean time of maximum plasma concentration (Tmax), range
  Tmax: 0.5 to 1 h
[3]; oral, single dose of 40 mg
  AUC: 0.93 to 1.43 µM·h
[3]; oral, single dose of 40 mg, read-out: mean time of maximum plasma concentration (Tmax), range
  Tmax: 0.25 to 1 h
[3]; oral, single dose of 40 mg, upper limit in μM, read-out: mean maximum plasma concentration (Cmax), range
  Cmax: 0.355 to 0.655 µM
[3]; oral, single dose of 80 mg
  AUC: 2.25 to 4.16 µM·h
[3]; oral, single dose of 80 mg, read-out: mean time of maximum plasma concentration (Tmax), range
  Tmax: 0.5 to 1 h
[3]; oral, single dose of 80 mg, upper limit in μM, read-out: mean maximum plasma concentration (Cmax), range
  Cmax: 0.965 to 1.87 µM
[3]; oral, single dose of 120 mg
  AUC: 3.33 to 6.21 µM·h
[3]; oral, single dose of 120 mg, read-out: mean maximum plasma concentration (Cmax), range
  Cmax: 1.54 to 2.35 µM
[3]; oral, single dose of 120 mg, read-out: mean time of maximum plasma concentration (Tmax), range
  Tmax: 0.5 to 1 h
[3]; oral, single dose of 225 mg
  AUC: 6.38 to 9.4 µM·h
[3]; oral, single dose of 225 mg, read-out: mean time of maximum plasma concentration (Tmax), range
  Tmax: 0.5 to 1 h
[3]; oral, single dose of 225 mg, upper limit in μM, read-out: mean maximum plasma concentration (Cmax), range
  Cmax: 2.62 to 3.65 µM
[3]; oral, single dose of 345 mg
  AUC: 18.4 to 28.8 µM·h
[3]; oral, single dose of 345 mg, read-out: mean maximum plasma concentration (Cmax), range
  Cmax: 6.58 to 15.4 µM
[3]; oral, single dose of 345 mg, read-out: mean time of maximum plasma concentration (Tmax), range
  Tmax: 0.25 to 1 h
[3]; oral, single dose of 530 mg
  AUC: 22 to 39.5 µM·h
[3]; oral, single dose of 530 mg, read-out: mean maximum plasma concentration (Cmax), range
  Cmax: 9.45 to 18.1 µM
[3]; oral, single dose of 530 mg, read-out: mean time of maximum plasma concentration (Tmax), range
  Tmax: 0.5 to 1 h
[3]; po, 15 mg, single oral dose 15 mg, healthy volunteers, n = 6, read-out: T½ Mean (harmonic mean) (converted)
  half-life: 2.18 h
[3]; po, 25 mg, single oral dose 25 mg, healthy volunteers, n = 6, read-out: T½ Mean (harmonic mean) (converted)
  half-life: 2.86 h
[3]; po, 40 mg, single oral dose 40 mg, healthy volunteers, n = 6, read-out: T½ Mean (harmonic mean) (converted)
  half-life: 3.41 h
[3]; po, 80 mg, single oral dose 80 mg, healthy volunteers, n = 12, read-out: T½ Mean (harmonic mean) (converted)
  half-life: 4.05 h
[3]; po, 120 mg, single oral dose 120 mg, healthy volunteers, n = 6, read-out: T½ Mean (harmonic mean) (converted)
  half-life: 4.89 h
[3]; po, 225 mg, single oral dose 225 mg, healthy volunteers, n = 6, read-out: T½ Mean (harmonic mean) (converted)
  half-life: 5.53 h
[3]; po, 345 mg, single oral dose 345 mg, healthy volunteers, n = 6, read-out: T½ Mean (harmonic mean) (converted)
  half-life: 6.39 h
[3]; po, 530 mg, single oral dose 530 mg, healthy volunteers, n = 6, read-out: T½ Mean (harmonic mean) (converted)
  half-life: 6.04 h
[3]; oral administration, post dose, doses 15 to 530 mg, read-out: Tmax values
  Tmax: < 1 h
[3]; [10]
  AUC(0-inf): 0.342 µM·h
  concentration at 12 h: 2.09 nM
  CLo (apparent oral clearance) Mean: 98.0 L/h
[3]; single oral dose 15 mg, healthy volunteers, n = 6, read-out: Cmax Mean
  Cmax: 0.134 µM
[3]; single oral dose 15 mg, healthy volunteers, n = 6, read-out: Tmax Median
  Tmax: 0.75 h
[3]; [11]
  AUC(0-inf): 0.676 µM·h
  concentration at 12 h: 4.41 nM
  CLo (apparent oral clearance) Mean: 85.7 L/h
[3]; single oral dose 25 mg, healthy volunteers, n = 6, read-out: Cmax Mean
  Cmax: 0.303 µM
[3]; single oral dose 25 mg, healthy volunteers, n = 6, read-out: Tmax Median
  Tmax: 0.5 h
[3]; [12]
  AUC(0-inf): 1.18 µM·h
  concentration at 12 h: 6.36 nM
  CLo (apparent oral clearance) Mean: 74.5 L/h
[3]; single oral dose 40 mg, healthy volunteers, n = 6, read-out: Cmax Mean
  Cmax: 0.505 µM
[3]; single oral dose 40 mg, healthy volunteers, n = 6, read-out: Tmax Median
  Tmax: 0.5 h
[3]; [13]
  AUC(0-inf): 3.2 µM·h
  concentration at 12 h: 20.4 nM
[3]; single oral dose 80 mg, healthy volunteers, n = 12, read-out: Cmax Mean
  Cmax: 1.42 µM
[3]; single oral dose 80 mg, healthy volunteers, n = 12, read-out: Tmax Median
  Tmax: 0.5 h
[3]; [14]
  AUC(0-inf): 4.77 µM·h
  concentration at 12 h: 30.3 nM
  CLo (apparent oral clearance) Mean: 56.0 L/h
[3]; single oral dose 120 mg, healthy volunteers, n = 6, read-out: Cmax Mean
  Cmax: 1.94 µM
[3]; single oral dose 120 mg, healthy volunteers, n = 6, read-out: Tmax Median
  Tmax: 0.5 h
[3]; [15]
  AUC(0-inf): 7.89 µM·h
  concentration at 12 h: 49 nM
  CLo (apparent oral clearance) Mean: 61.6 L/h
[3]; single oral dose 225 mg, healthy volunteers, n = 6, read-out: Cmax Mean
  Cmax: 3.14 µM
[3]; single oral dose 225 mg, healthy volunteers, n = 6, read-out: Tmax Median
  Tmax: 0.75 h
[3]; [16]
  AUC(0-inf): 23.6 µM·h
  concentration at 12 h: 153 nM
  CLo (apparent oral clearance) Mean: 32.0 L/h
[3]; single oral dose 345 mg, healthy volunteers, n = 6, read-out: Cmax Mean
  Cmax: 11 µM
[3]; single oral dose 345 mg, healthy volunteers, n = 6, read-out: Tmax Median
  Tmax: 0.75 h
[3]; [17]
  AUC(0-inf): 30.8 µM·h
  concentration at 12 h: 167 nM
  CLo (apparent oral clearance) Mean: 38.6 L/h
[3]; single oral dose 530 mg, healthy volunteers, n = 6, read-out: Cmax Mean
  Cmax: 13.8 µM
[3]; single oral dose 530 mg, healthy volunteers, n = 6, read-out: Tmax Median
  Tmax: 0.5 h
[3]; upon oral administration
  oral absorption: rapidly and well absorbed
[4]; fasted subjects, single dose of 225 mg
  differences in pharmacokinetics due to gender: No apparent differences
[4]; [18]
  half-life: 5.93 ± 0.66 h
  AUC(0-inf): 11.4 ± 2.17 µM·h
  Cmax: 6650 ± 1750 nM
  Tmax: 0.51 h
[4]; [19]
  half-life: 5.53 ± 0.88 h
  AUC(0-inf): 7.89 ± 1.51 µM·h
  Cmax: 3140 ± 511 nM
  Tmax: 0.75 h
[4]; [20]
  half-life: 6.19 ± 1.21 h
  AUC(0-inf): 12.5 ± 2.79 µM·h
  Cmax: 5700 ± 1420 nM
  Tmax: 0.5 h
[5]
  CLo (apparent oral clearance) Mean: 57.3 L/h
